Experimental data from ChEMBL document CHEMBL5247613, “Design, synthesis and biological evaluation of a new class of Hsp90 inhibitors vibsanin C derivatives” (Eur J Med Chem, 2022).

Test system: Reticulocyte
Assay: Inhibition of HSP90 in rabbit reticulocyte lysates at 10 uM incubated for 3 hrs by denatured luciferase refolding assay
Assay type: subcellular
Settings: Oryctolagus cuniculus

| SMILES | inhibition [%] |
| --- | --- |
| CC(C)=CCC[C@@]1(C)CC=C(CO)C(=O)[C@H]2C[C@@](C)(O)[C@@H](C=O)[C@@H]21 | 13.3 |
| CC(=O)C[C@@H]1C(=O)[C@H](CO)CC[C@](C)(CCCC(C)C)[C@H]1/C=C/OC(=O)C=C(C)C | 22.8 |
| CC(=O)C[C@@H]1C(=O)C(CO)=CC[C@](C)(CCC2OC2(C)C)[C@H]1/C=C/OC(=O)C=C(C)C (some centres undefined) | 36.6 |
| CC(=O)C[C@@H]1C(=O)C(CO)=CC[C@](C)(CCC=C(C)C)[C@H]1/C=C/OC(=O)C=C(C)C | 30 |
| CC(C)=CCC[C@@]1(C)CC=C(CCl)c2oc(C)cc2[C@@H]1/C=C/OC(=O)C=C(C)C | 32.6 |
| CC(=O)C[C@@H]1C(=O)C(COC(=O)C2CCCCC2)=CC[C@](C)(CCC=C(C)C)[C@H]1/C=C/OC(=O)C=C(C)C | 40.3 |
| CC(C)=CCC[C@@]1(C)CC=C(CO)c2[nH]c(C)cc2[C@@H]1/C=C/OC(=O)C=C(C)C | 10.6 |
| CC(=O)C[C@@H]1C(=O)C(CS)=CC[C@](C)(CCC=C(C)C)[C@H]1/C=C/OC(=O)C=C(C)C | 0.32 |
| CC(C)=CCC[C@@]1(C)CC=C(COC(=O)CCC(=O)Nc2ccc(F)cc2)c2oc(C)cc2[C@@H]1/C=C/OC(=O)C=C(C)C | 57 |
| CC(C)=CCC[C@@]1(C)CC=C(Cn2ccnc2)c2oc(C)cc2[C@@H]1/C=C/OC(=O)C=C(C)C | 37.1 |
| CC(=O)C[C@@H]1C(=O)C(CO)=CC[C@](C)(CCC(=O)C(C)C)[C@H]1/C=C/OC(=O)C=C(C)C | 0.69 |
| CC(C)=CCC[C@@]1(C)CC=C(C=O)c2[nH]c(C)c(Cl)c2[C@@H]1/C=C/OC(=O)C=C(C)C | 45 |
| CC(C)=CCC[C@@]1(C)CC=C(CO)[C@H]2O[C@](C)(O)C[C@H]2[C@@H]1/C=C/OC(=O)C=C(C)C | 14.2 |
| CC(=O)C[C@@H]1C(=O)C(COC(C)=O)=CC[C@](C)(CCC=C(C)C)[C@H]1/C=C/OC(=O)C=C(C)C | 34.9 |
| CC(=O)C[C@@H]1C(=O)C(CN2CCN(C(C)C)CC2)=CC[C@](C)(CCC=C(C)C)[C@H]1/C=C/OC(=O)C=C(C)C | 23.8 |
| CC(C)=CCC[C@@]1(C)CC=C(CN2CCOCC2)c2[nH]c(C)cc2[C@@H]1/C=C/OC(=O)C=C(C)C | 6.37 |
| CC(C)=CCC[C@@]1(C)CC=C(COC(=O)c2ccc3cc[nH]c3c2)c2[nH]c(C)cc2[C@@H]1/C=C/OC(=O)C=C(C)C | 50.8 |
| CC(C)=CCC[C@@]1(C)CC=C(COC(=O)c2ccc3cc[nH]c3c2)c2oc(C)cc2[C@@H]1/C=C/OC(=O)C=C(C)C | 42.9 |
| CC(C)=CCC[C@@]1(C)CC=C(CO)c2nnc(C)cc2[C@@H]1/C=C/OC(=O)C=C(C)C | 23.6 |
| CC(C)=CCC[C@@]1(C)CC=C(COC(=O)CCC(=O)Nc2ccc(F)cc2)c2[nH]c(C)cc2[C@@H]1/C=C/OC(=O)C=C(C)C | 48 |
| CC(=O)C[C@@H]1C(=O)C(CNc2ccc(F)cc2)=CC[C@](C)(CCC=C(C)C)[C@H]1/C=C/OC(=O)C=C(C)C | 64.5 |
| CC(C)=CCC[C@@]1(C)CC=C(CN2CCN(C(C)C)CC2)c2nnc(C)cc2[C@@H]1/C=C/OC(=O)C=C(C)C | 20.1 |
| CC(=O)C[C@@H]1C(=O)C(CCl)=CC[C@](C)(CCC=C(C)C)[C@H]1/C=C/OC(=O)C=C(C)C | 53.1 |
| CC(C)=CCC[C@@]1(C)CC=C(CO)c2oc(C)cc2[C@@H]1/C=C/OC(=O)C=C(C)C | 82.3 |
| CC(C)=CCC[C@@]1(C)CC=C(CNc2ccc(F)cc2)c2oc(C)cc2[C@@H]1/C=C/OC(=O)C=C(C)C | 13.1 |
| CC(C)=CCC[C@@]1(C)CC=C(CNc2ccc(F)cc2)c2nnc(C)cc2[C@@H]1/C=C/OC(=O)C=C(C)C | 49.3 |
| CC(=O)C[C@@H]1C(=O)C(COC(=O)c2ccccc2)=CC[C@](C)(CCC=C(C)C)[C@H]1/C=C/OC(=O)C=C(C)C | 36.9 |
| CC(C)=CCC[C@@]1(C)CC=C(COC(=O)CCC(=O)Nc2ccc(F)cc2)c2nnc(C)cc2[C@@H]1/C=C/OC(=O)C=C(C)C | 54.1 |
| CC(=O)C[C@@H]1C(=O)C(CN2CCOCC2)=CC[C@](C)(CCC=C(C)C)[C@H]1/C=C/OC(=O)C=C(C)C | 14.2 |
